According to PMC11931604 (Drug Development Research, 2025):
“Also recorded” adds a separate entry of the source. Read-outs that look alike come from different tables or passages of the source.

Key:
[1] = tested on: A/H1N1 (strain A/Ned/378/05); test: CPE reduction assay in MDCK cells, influenza A/H1N1; format: cell-based; details: Influenza A virus
[2] = tested on: A/H3N2 (A/HK/7/87); test: microbe, parasite or virus in culture; format: cell-based, influenza A virus; details: for EC50: Influenza A virus, H3N2, MDCK; for anti-A/H3N2 activity (in words): MDCK cells
[3] = tested on: IBV (B/Ned/537/05); test: CPE reduction assay in MDCK cells, influenza B virus; format: cell-based
[4] = in vitro; details: dog
[5] = read-out: Antiviral EC50 A/H1N1 CPE
[6] = read-out: Antiviral EC50 A/H1N1 MTS
[7] = read-out: Antiviral EC50 A/H3N2 CPE
[8] = read-out: Antiviral EC50 A/H3N2 MTS
[9] = read-out: Antiviral EC50 IBV CPE
[10] = read-out: Antiviral EC50 IBV MTS

Row | Structure (SMILES) | EC50 [1, 5] [µM] | EC50 [1, 6] [µM] | EC50 [2, 7] [µM] | EC50 [2, 8] [µM] | EC50 [3, 9] [µM] | EC50 [3, 10] [µM] | CC50 [4] [µM] | anti-A/H3N2 activity (in words) [2]
1 | CC1SC2(CCC(C(C)(C)C)CC2)N(NC(=O)c2ccc(C(C)(C)C)cc2)C1=O (stereo not drawn) [Compound 2f, 4‐(tert‐Butyl)‐N‐(8‐(tert‐butyl)‐2‐methyl‐3‐oxo‐1‐thia‐4‐azaspiro[4.5]decan‐4‐yl)benzamide] | > 100 | > 100 | > 100 | > 100 | > 100 | > 100 | > 100 | –
2 | CC1CCC2(CC1)SC(C)C(=O)N2NC(=O)c1ccc(C(C)(C)C)cc1 (stereo not drawn) [Compound 2c, 4‐(tert‐Butyl)‐N‐(2,8‐dimethyl‐3‐oxo‐1‐thia‐4‐azaspiro[4.5]decan‐4‐yl)benzamide] | > 100 | > 100 | 2.4 ± 0.8 | 1.3 ± 0.3 | > 100 | > 100 | 39 ± 25 | –
3 | CCC(CC)O[C@@H]1C=C(C(=O)O)C[C@H](N)[C@H]1NC(C)=O [Oseltamivir carboxylate, reference compound] | 0.5 | 0.4 | 0.8 | 0.4 | 0.8 | 0.6 | > 100 | –
4 | NC(=O)c1ncn([C@@H]2O[C@H](CO)[C@@H](O)[C@H]2O)n1 [Ribavirin, reference compound] | 8.9 | 7.1 | 6.8 | 1.3 | 9 | 5.3 | > 100 | –
5 | CC(C)(C)c1ccc(C(=O)NN2C(=O)CSC23CCC(C(C)(C)C)CC3)cc1 (stereo not drawn) [Compound 1f, 4‐(tert‐Butyl)‐N‐(8‐(tert‐butyl)‐3‐oxo‐1‐thia‐4‐azaspiro[4.5]decan‐4‐yl)benzamide] | > 100 | > 100 | > 100 | > 100 | > 100 | > 100 | > 100 | –
6 | CC1CCCC2(C1)SC(C)C(=O)N2NC(=O)c1ccc(C(C)(C)C)cc1 (stereo not drawn) [Compound 2b, 4‐(tert‐Butyl)‐N‐(2,7‐dimethyl‐3‐oxo‐1‐thia‐4‐azaspiro[4.5]decan‐4‐yl)benzamide] | > 100 | > 100 | > 100 | > 100 | > 100 | > 100 | 78 | devoid of antiviral activity
7 | CCCC1CCC2(CC1)SCC(=O)N2NC(=O)c1ccc(C(C)(C)C)cc1 (stereo not drawn) [Compound 1e, 4‐(tert‐Butyl)‐N‐(3‐oxo‐8‐propyl‐1‐thia‐4‐azaspiro[4.5]decan‐4‐yl)benzamide] | > 100 | > 100 | > 100 | > 100 | > 100 | > 100 | > 100 | –
8 | CCC1CCC2(CC1)SCC(=O)N2NC(=O)c1ccc(C(C)(C)C)cc1 (stereo not drawn) [Compound 1d, 4‐(tert‐Butyl)‐N‐(8‐ethyl‐3‐oxo‐1‐thia‐4‐azaspiro[4.5]decan‐4‐yl)benzamide] | > 100 | > 100 | > 100 | > 100 | > 100 | > 100 | > 100 | –
9 | CCCC1CCC2(CC1)SC(C)C(=O)N2NC(=O)c1ccc(C(C)(C)C)cc1 (stereo not drawn) [Compound 2e, 4‐(tert‐Butyl)‐N‐(2‐methyl‐3‐oxo‐8‐propyl‐1‐thia‐4‐azaspiro[4.5]decan‐4‐yl)benzamide] | > 100 | > 100 | > 100 | > 100 | > 100 | > 100 | 14 | –
10 | CCC1CCC2(CC1)SC(C)C(=O)N2NC(=O)c1ccc(C(C)(C)C)cc1 (stereo not drawn) [Compound 2d, 4‐(tert‐Butyl)‐N‐(8‐ethyl‐2‐methyl‐3‐oxo‐1‐thia‐4‐azaspiro[4.5]decan‐4‐yl)benzamide] | > 100 | > 100 | > 100 | > 100 | > 100 | > 100 | 13 | –
11 | CC1SC2(CCCCC2)N(NC(=O)c2ccc(C(C)(C)C)cc2)C1=O (stereo not drawn) [Compound 2a, 4‐(tert‐Butyl)‐N‐(2‐methyl‐3‐oxo‐1‐thia‐4‐azaspiro[4.5]decan‐4‐yl)benzamide] | > 100 | > 100 | > 100 | > 100 | > 100 | > 100 | 92 | devoid of antiviral activity
12 | CC1CCCC2(C1)SCC(=O)N2NC(=O)c1ccc(C(C)(C)C)cc1 (stereo not drawn) [Compound 1b, 4‐(tert‐Butyl)‐N‐(7‐methyl‐3‐oxo‐1‐thia‐4‐azaspiro[4.5]decan‐4‐yl)benzamide] | > 100 | > 100 | > 100 | > 100 | > 100 | > 100 | 11 | –
13 | CC(C)(C)c1ccc(C(=O)NN2C(=O)CSC23CCCCC3)cc1 [Compound 1a, 4‐(tert‐Butyl)‐N‐(3‐oxo‐1‐thia‐4‐azaspiro[4.5]decan‐4‐yl)benzamide] | > 100 | > 100 | > 100 | > 100 | > 100 | > 100 | > 100 | –
14 | CC1CCC2(CC1)SCC(=O)N2NC(=O)c1ccc(C(C)(C)C)cc1 (stereo not drawn) [Compound 1c, 4‐(tert‐Butyl)‐N‐(8‐methyl‐3‐oxo‐1‐thia‐4‐azaspiro[4.5]decan‐4‐yl)benzamide] | > 100 | > 100 | > 100 | > 100 | > 100 | > 100 | > 100 | inactive; also recorded: lacks anti‐A/H3N2 activity
15 | CC(N)C12CC3CC(CC(C3)C1)C2 (stereo not drawn) [Rimantadine, reference compound] | 8 | 8.7 | 0.7 | 0.8 | > 200 | > 200 | > 200 | –
